This is an account of results in US9422231B2, “Method for inhibiting Trypanosoma cruzi” (HOWARD UNIVERSITY, priority 2011, dated 2016).

SMILES strings stand for the structures. Several values for one entry are separate records, joined by “and”; a condition that tells them apart may be missing. Equal entries are not always repeated. Where two headings read alike, the source gives them in different places.

Series [1] addresses purified Trypanosoma cruzi tublin (Trypanosoma cruzi, UniProt P08562+Q27352). Briefly: Tubulin assembly assay. The series is classed as biochemical. Conditions: purified T. cruzi tubulin 1.2 mg/ml, absorbance at 405 nm, 30° C.; read-out: Tubulin polymerization Inhibition IC50. The method, then: Tubulin assembly assays were conducted to assess tubulin polymerization inhibition. The assays were conducted in a 96-well microplate. Assembly reactions were conducted in a buffer containing 0.1 M PIPES (pH 6.9), 1 mM EGTA, 5 mM Mgcl, 1.2 mg/ml purified Trypanosoma cruzi tublin, at concentrations (0.6-40 μM) of the imido-substituted 1,4-naphthoquinone (IMDNQ 1-IMDNQ 11). Components of the reaction mixtures were added to the microplate and assembly was initiated by the addition of 1 mM GTP. The assembly reactions were assayed photometrically by measuring the absorbance at 405 nm using a microplate reader at 30° C.

Series [2] concerns Balb/C 3T3 mouse fibroblasts (clone A31). Briefly: MTT cytotoxicity assay on Balb/C 3T3 mouse fibroblasts. The series is classed as cell-based. Conditions: for IC50: 48 h; for Cytotoxicity compared with nifurtimox: Balb/C 3T3 mouse fibroblast cell line, FIG. 4. The method, then: (§1) A cytotoxicity assay was performed with representive analogs IMNDQ1 through IMNDQ11. […] MTT is a yellow tetrazolium salt that is reduced to purple formazan crystals by metabolically active cells. Cells (2.2×10^4 cells/well) were seeded in 96-well plate in Improved Minimum Essential Medium (IMEM). […] After 48 h incubation at 37° C. in the presence 5% CO2, the medium was aspirated and the cells washed twice to remove traces of chemical compounds. IMEM without phenol containing 10% (v/v) of 3 mg/ml MTT were added to each well. The plates were incubated for 4 h at 37° C. followed by aspiration. The plates were dried for 1 h in a 37° C. incubator. 100 μl of 0.04 N HCl in isopropanol were added to each well and incubated at room temperature (27° C.) in the dark for 2 h to dissolve the formazan crystals. The absorbance was measured spectrophotometrically at 570 nm in a plate reader. The concentration that reduces cell viability by 50% (IC50) was calculated for each compound. The toxicity for mammalian cells and the activity against T. cruzi were compared by calculating the selectivity index (SI), the ratio of IC50 for fibroblast cells/IC50 for parasites. The data were subjected to statistical analysis. All experiments were done in triplicate, the means and standard errors (S.E.) were determined. Data were analyzed by one way ANOVA and Tukey's multiple comparison test using GraphPad PRISM software version 5.00. P<0.05 was considered significant.

The subject of series [3] is Trypanosoma cruzi epimastigotes (Tulahuen CL98 strain). In words: Antitrypanosomal activity against Trypanosoma cruzi epimastigotes (parasite count). Conditions: for IC50: T. cruzi epimastigotes, 48 h, mean ± S.E. of three experiments, read-out: Antitrypanocidal activity IC50; for Selectivity Index (Cytotoxicity/Activity): ratio of IC50 for fibroblast cells/IC50 for parasites; for Selectivity index greater/better than nifurtimox: in vitro selectivity index relative to nifurtimox. The series is classed as cell-based. The method, then:
(§2) The antitrypanosomal activity against Trypanosoma cruzi was assayed. Trypanosoma cruzi epimastigotes (Tulahuen CL98 strain) were cultured in liver infusion trypose (LIT) medium supplemented with 10% fetal bovine serum (FBS) at 28° C., with an inoculum of 1×10^5 cells/ml. […] All assays were carried out in triplicate. […] The data were subjected to statistical analysis. All experiments were done in triplicate, the means and standard errors (S.E.) were determined. Data were analyzed by one way ANOVA and Tukey's multiple comparison test using GraphPad PRISM software version 5.00. P<0.05 was considered significant.

Series [4] is described as follows: MTT cytotoxicity assay on Balb/C 3T3 mouse fibroblasts. The series is classed as cell-based. Particulars: mouse, Cytotoxicity IC50. The procedure:
as §1
In general terms: Tetrazolium assays rely on reduction of a dye to a coloured formazan, in cell work by metabolically active cells.

The test system of another series is T. cruzi epimastigotes. Particulars: Ramos et al., 2009; cited from earlier work.
Series [5] can be described thus: Antitrypanosomal activity against Trypanosoma cruzi epimastigotes (parasite count). Conditions: mouse (fibroblasts) / Trypanosoma cruzi (parasites); ratio of IC50 for fibroblast cells/IC50 for parasites; read-out: Selectivity Index (Cytotoxicity/Activity). It counts as cell-based. The procedure:
as §2

Setting [6] is: Balb/C 3T3 mouse fibroblasts, MTT, mean ± S.E. of three experiments, read-out: Cytotoxicity IC50.

For orientation: IC50 means the point on the concentration scale where inhibition reaches its midpoint. As for `CCCC(=O)N(C(=O)CCC)C1=C(Cl)C(=O)c2ccccc2C1=O` [IMDNQ3], the IC50 stood at 3.2 µM in series [1], 21.7 µM in series [2] (setting [6]) and 0.7 µM in series [3]. The “Selectivity Index (Cytotoxicity/Activity)” value in series [3] was 31.83 and 31.83 ± 3.17.
By melting point is commonly meant the temperature, or range, at which the solid turns liquid. For `O=C1C(Br)=C(N(C(=O)c2ccc(Cl)cc2)C(=O)c2ccc(Cl)cc2)C(=O)c2ccccc21` [Example 23, 2-bis-(4-chlorobenzoyl)amino-3-bromo-1,4-naphthoquinone], the melting point lay within 266 to 269 °C.
For the molecule `O=C1C(Cl)=C(N2C(=O)c3ccccc3C2=O)C(=O)c2ccccc21` [IMDNQ2], the IC50 in series [1] is 12 µM; in series [2] (setting [6]), 253.7 ± 1.87 µM; in series [3] it was 4.89 µM and 4.83 µM. Moreover, the “Cytotoxicity compared with nifurtimox” value in series [2] is reported as “far less cytotoxic than nifurtimox”. For the same molecule, the “Selectivity index greater/better than nifurtimox” value in series [3] is “at least 300%”. Also, the “Selectivity Index (Cytotoxicity/Activity)” value in series [3] was 53.97 and 53.97 ± 5.95.
Regarding `O=C1C(Br)=C(N(C(=O)c2ccccc2)C(=O)c2ccccc2)C(=O)c2ccccc21` [Example 21, 2-Dibenzoylamino-3-bromo-1,4-naphthoquinone], the melting point lay within 234 to 238 °C.
As for `CC1CS(=O)(=O)CCN1/N=C/c1ccc([N+](=O)[O-])o1` (stereo not shown) [Nifurtimox, reference compound], the IC50 in series [3] is 10.7 µM.
In turn, `O=C1C(Br)=C(N(C(=O)c2cccc(Cl)c2)C(=O)c2cccc(Cl)c2)C(=O)c2ccccc21` [Example 22, 2-bis-(3-chlorobenzoyl)amino-3-bromo-1,4-naphthoquinone] displayed a melting point of 204 to 206 °C.
`O=C1C(Cl)=C(N(C(=O)c2ccccc2Cl)C(=O)c2ccccc2Cl)C(=O)c2ccccc21` [IMDNQ8, 2-Chloro-N-(2-chlorobenzoyl)-N-(3-chloro-1,4-dioxo-1,4-dihydronaphthalen-2-yl)-benzamide] showed a melting point of 217 to 218 °C. This molecule yielded an IC50 at 48 h in series [4] of 26.5 µM. In series [3], the IC50 was determined as 2.67 ± 0.33 µM and the “Selectivity Index (Cytotoxicity/Activity)” value is recorded as 10.17 ± 0.97.
For the molecule `O=C1C(Cl)=C(N(C(=O)CCl)C(=O)CCl)C(=O)c2ccccc21` [IMDNQ11], the IC50 in series [1] is above 40 µM; in series [2] (setting [6]), 19.7 ± 3.71 µM; in series [3] it was 6.1 ± 0.38 µM. In addition, the “Selectivity Index (Cytotoxicity/Activity)” value in series [3] worked out at 3.20 ± 0.44.
Regarding `O=C1C(Cl)=C(N2C(=O)CCC2=O)C(=O)c2ccccc21` [IMDNQ1, 2-chloro-3-(N-succinimidyl)-1,4-naphthoquinone], in series [1], the IC50 stood at 6 µM. Further, in series [2], the “Cytotoxicity compared with nifurtimox” value is “far less cytotoxic than nifurtimox”. In series [2] (setting [6]), the IC50 is > 100 µM and 166 µM. In series [3], the IC50 was 2.77 µM; the “Selectivity index greater/better than nifurtimox” value was “at least 300%”; the “Selectivity Index (Cytotoxicity/Activity)” value is 60.25 and 60.25 ± 2.79.
For `COc1ccc(C(=O)N(C(=O)c2ccc(OC)cc2)C2=C(Cl)C(=O)c3ccccc3C2=O)cc1` [Example 28, 2-bis-(4-methoxybenzoyl)amino-3-chloro-1,4-naphthoquinone], the melting point fell in the range of 283 to 287 °C.
Turning to `O=C1C(Br)=C(N(C(=O)c2ccccc2Cl)C(=O)c2ccccc2Cl)C(=O)c2ccccc21` [IMDNQ6, N-(3-Bromo-1,4-dioxo-1,4-dihydronaphthalen-2-yl)-2-chloro-N-(2-chlorobenzoyl)-benzamide], the melting point lay within 232 to 234 °C. In addition, inhibition in series [4] was half-maximal at 14.2 µM (IC50 at 48 h). Moreover, in series [3] (Trypanosoma cruzi, TULAHUEN), the IC50 stood at 1.51 µM. For the same molecule, in series [3], the “Selectivity Index (Cytotoxicity/Activity)” value was found to be 9.43 ± 0.94.
`O=C1C(c2ccccc2)=C(c2ccccc2)C(=O)c2ccccc21` [2,3-diphenyl-1,4-naphthoquinone]: in the series on T. cruzi epimastigotes, the LD50 is 2.5 µM.
Turning to `O=C1C(Cl)=C(N(C(=O)c2cccc(Cl)c2)C(=O)c2cccc(Cl)c2)C(=O)c2ccccc21` [IMDNQ10, 3-Chloro-N-(3-chlorobenzoyl)-N-(3-chloro-1,4-dioxo-1,4-dihydronaphthalen-2-yl)-benzamide], the melting point was 258 to 260 °C. The IC50 in series [1] is 8 µM. This molecule also yielded an IC50 in series [2] (mouse) of 611 ± 10.3 µM. Besides, in series [5], the selectivity ratio at 48 h came out at 275. Besides, in series [3] (Trypanosoma cruzi, TULAHUEN), the IC50 was 2.23 µM. Also, the “Selectivity index, times better than nifurtimox” value in series [3] (calculated selectivity index relative to nifurtimox) is “about 25 times”. Moreover, in series [3], the “Selectivity index greater/better than nifurtimox” value is “at least 300%”.
`CC(C)(C)c1ccc(C(=O)N(C(=O)c2ccc(C(C)(C)C)cc2)C2=C(Cl)C(=O)c3ccccc3C2=O)cc1` [Example 24, 2-bis-(4-tert-butylbenzoyl)amino-3-chloro-1,4-naphthoquinone] came in with a melting point of 257 to 260 °C.
As for `O=C1C(Cl)=C(N(C(=O)c2ccccc2)C(=O)c2ccccc2)C(=O)c2ccccc21` [Example 20, 2-Dibenzoylamino-3-chloro-1,4-naphthoquinone], the melting point lay in the range of 294 to 297 °C.
For `O=C1C(Cl)=C(N(C(=O)c2ccc(F)cc2)C(=O)c2ccc(F)cc2)C(=O)c2ccccc21` [IMDNQ9, N-(3-Chloro-1,4-dioxo-1,4-dihydronaphthalen-2-yl)-4-fluoro-N-(4-fluorobenzoyl)-benzamide], the melting point lay within 284 to 286 °C. In series [4], this molecule displayed an IC50 at 48 h of 21.8 µM. Further, in series [3], the IC50 amounted to 4.07 ± 0.23 µM and the “Selectivity Index (Cytotoxicity/Activity)” value is 5.43 ± 0.69.
For the molecule `O=C1C(Cl)=C(N(C(=O)c2ccc(Cl)cc2)C(=O)c2ccc(Cl)cc2)C(=O)c2ccccc21` [IMDNQ7, 4-Chloro-N-(4-chlorobenzoyl)-N-(3-chloro-1,4-dioxo-1,4-dihydronaphthalen-2-yl)-benzamide], the melting point lay in the range of 212 to 213 °C. Moreover, in series [2] (mouse), the IC50 was determined as 17.8 ± 2.21 µM. Also, in series [3] (Trypanosoma cruzi, TULAHUEN), the IC50 was 1.27 ± 0.15 µM. Also, the “Selectivity Index (Cytotoxicity/Activity)” value in series [3] came out at 14.23 ± 1.62.
Consider `O=C1C(Cl)=C(N2C(=O)COCC2=O)C(=O)c2ccccc21` [IMDNQ4], for which the IC50 in series [2] (setting [6]) turned out to be 35.5 ± 1.76 µM. Further, in series [3], the IC50 came to 4.93 ± 0.64 µM and the “Selectivity Index (Cytotoxicity/Activity)” value is on record as 7.43 ± 0.97.
For `O=C1C(Br)=C(N(C(=O)c2ccc(F)cc2)C(=O)c2ccc(F)cc2)C(=O)c2ccccc21` [IMDNQ5, N-(3-Bromo-1,4-dioxo-1,4-dihydronaphthalen-2-yl)-4-fluoro-N-(4-fluorobenzoyl)-benzamide], the melting point lay in the range of 170 to 172 °C. In series [4], this molecule had an IC50 at 48 h of 12.8 µM. In addition, in series [3], the IC50 worked out at 2.27 ± 0.15 µM and the “Selectivity Index (Cytotoxicity/Activity)” value worked out at 5.70 ± 0.06.
